Tested on: rat liver mitochondria
Assay: Membrane potential-dependent uptake into isolated mitochondria (TPP-selective electrode)
Type: biochemical
Conditions: energized with 10 mM succinate, reversed by FCCP
Procedure: FIG. 8 is a trace showing the uptake of MitoSNAP and MitoNAP by energized mitochondria measured using an ion-selective electrode. For (a) and (b) mitochondria (2 mg protein/ml) were incubated in KCl buffer supplemented with rotenone in a stirred 3 ml chamber thermostatted at 37° C. and shielded from ambient light. An electrode selective for the TPP cation was inserted and calibrated by five sequential 1 μM additions of MitoNAP (a) or MitoSNAP (b). Succinate (10 mM) was then added to energize the mitochondria, followed by the uncoupler FCCP (0.5 μM). Rapid uptake of MitoNAP by energized mitochondria was observed and this was reversed by abolishing the membrane potential with the uncoupler FCCP (a). Energised mitochondria also rapidly accumulated MitoSNAP (b). However, in contrast to MitoNAP, uncoupling apparently led to only partial release of the accumulated MitoSNAP (b). This apparent incomplete release of MitoSNAP on uncoupling is presumably because MitoSNAP is converted to MitoNAP within mitochondria and this generates a different response from the electrode.
Mitochondrial incubations were usually in KCl buffer (120 mM KCl, 10 mM HEPES, 1 mM EGTA, 100 μM N,N-bis(2-bis[carboxymethyl]aminoethyl) glycine (DTPA) and 10 μM neocuproine, pH 7.2) with 10 mM succinate and 4 μg/ml rotenone in the dark at 37° C., unless stated otherwise. An electrode selective for the TPP moiety of MitoSNAP and MitoNAP was made and used as described previously (Asin-Cayuela, J., Manas, A. R., James, A. M., Smith, R. A. & Murphy, M. P. Fine-tuning the hydrophobicity of a mitochondria-targeted antioxidant. FEBS Letts. 571, 9-16 (2004)). Respiration rates were measured in a Clark type O2 electrode (Rank Brothers, UK). To measure GSH and GSSG, mitochondria (1 mg protein/ml) were incubated with 0-10 μM MitoSNO1 or MitoNAP for 10 min, pelleted by centrifugation and the GSH and GSSG contents assessed by the recycling assay (Scarlett, J. L., Packer, M. A., Porteous, C. M. & Murphy, M. P. Alterations to glutathione and nicotinamide nucleotides during the mitochondrial permeability transition induced by peroxynitrite. Biochem. Pharmacol. 52, 1047-1055 (1996)). The measurement of exposed mitochondrial protein thiols is described below.
Rat liver mitochondria (1 mg protein/ml) in KCl buffer was incubated at 37° C. with 5 μM MitoSNO. 1 μM additions of MitoSNO were made sequentially before addition of 10 mM succinate. 200 nM FCCP was then added to uncouple the mitochondria. The concentrations of O2 and MitoSNO in solution were measured simultaneously using a Clark-type O2 electrode in combination with an ion-selective electrode for triphenylphosphonium cation (TPP^+). […] This can be seen in FIG. 3.
When succinate was added, the mitochondria started respiring and set up a Δψ, which caused a decrease in the MitoSNO concentration, as detected by the ion-selective electrode (FIG. 3). When the mitochondria were uncoupled by FCCP, a concomitant increase in the concentration of MitoSNO, or its derivatives, in the medium was detected by the ion-selective electrode. The amount of MitoSNO taken up into the mitochondria from the trace in FIG. 3 corresponds to ˜2.5 μM of the initial external concentration of 5 μM. Therefore 7.5 nmol MitoSNO have been taken up into 3 mg protein, and as the mitochondrial volume is ˜0.5 μl/mg protein (Brown, G. C. and Brand, M. D. Biochem J., 1985, 225, 399-405), the concentration of MitoSNO within mitochondria is ˜5 mM. This represents a 2000 fold concentration relative to the 2.5 μM present in the external medium, and is consistent with a Nernstian uptake of MitoSNO.

CC(=O)NC(C(=O)NCCCCC[P+](c1ccccc1)(c1ccccc1)c1ccccc1)C(C)(C)SN=O.CS(=O)(=O)[O-] (stereo not shown) [MitoSNAP, [5-(2-acetylamino-3-methyl-3-nitrosothio-butyrylamino)-penty1]-triphenylphosphonium methanesulfonate]
uptake by isolated mitochondria: significant Δψ-dependent uptake

— patent US9045505B2, “Nitric oxide donors” (University of Otago, priority 2006, dated 2015)
